This note sets out measurements from patent publication US7875621B2, “Substituted 2-alkyl quinazolinone derivatives as PARP inhibitors” (Janssen Pharmaceutica NV, priority 2004, dated 2011).

Bounds are passed on as bounds.

One assay concerns the target T1, TANK-2 enzyme (Homo sapiens, UniProt Q9H2K2).
T1 construct: inferred from capture on Ni-coated flash plate; made in house
T1 sequence (Q9H2K2 1-1166): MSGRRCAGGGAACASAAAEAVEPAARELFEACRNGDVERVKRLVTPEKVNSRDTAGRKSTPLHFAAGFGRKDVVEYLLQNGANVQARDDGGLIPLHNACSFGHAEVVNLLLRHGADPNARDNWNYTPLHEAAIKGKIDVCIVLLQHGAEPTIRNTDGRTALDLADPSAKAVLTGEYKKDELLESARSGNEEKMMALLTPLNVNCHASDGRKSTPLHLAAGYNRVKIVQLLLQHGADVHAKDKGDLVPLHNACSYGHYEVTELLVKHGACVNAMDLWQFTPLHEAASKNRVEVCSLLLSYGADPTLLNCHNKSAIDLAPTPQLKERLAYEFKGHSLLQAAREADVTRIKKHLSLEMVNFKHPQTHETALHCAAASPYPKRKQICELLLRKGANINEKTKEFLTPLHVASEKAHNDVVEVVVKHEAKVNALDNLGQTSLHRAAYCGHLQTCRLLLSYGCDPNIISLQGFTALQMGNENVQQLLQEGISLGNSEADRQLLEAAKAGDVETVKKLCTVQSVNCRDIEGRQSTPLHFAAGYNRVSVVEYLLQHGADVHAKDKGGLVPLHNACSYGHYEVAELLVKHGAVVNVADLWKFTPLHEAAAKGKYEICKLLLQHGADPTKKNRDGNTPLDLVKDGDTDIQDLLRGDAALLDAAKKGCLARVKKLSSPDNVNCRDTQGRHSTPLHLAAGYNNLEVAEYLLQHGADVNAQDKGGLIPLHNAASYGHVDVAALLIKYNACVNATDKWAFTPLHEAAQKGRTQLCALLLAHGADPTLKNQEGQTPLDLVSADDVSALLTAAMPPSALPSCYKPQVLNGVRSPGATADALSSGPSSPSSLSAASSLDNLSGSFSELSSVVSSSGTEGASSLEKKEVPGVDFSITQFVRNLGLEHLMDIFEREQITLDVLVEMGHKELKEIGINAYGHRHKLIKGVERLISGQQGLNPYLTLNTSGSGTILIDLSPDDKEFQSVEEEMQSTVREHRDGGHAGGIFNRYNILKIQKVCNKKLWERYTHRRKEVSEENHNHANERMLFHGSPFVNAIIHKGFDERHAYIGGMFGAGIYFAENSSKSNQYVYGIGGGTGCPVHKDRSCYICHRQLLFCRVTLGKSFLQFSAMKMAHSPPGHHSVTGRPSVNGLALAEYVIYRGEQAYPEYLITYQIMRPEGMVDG
The experiment in a line: In vitro scintillation proximity assay (SPA) for TANK-2 inhibitory activity. The format is biochemical.
Conditions: not given
The protocol:
In Vitro Scintillation Proximity Assay (SPA) for TANK-2 Inhibitory Activity
Compounds of the present invention were tested in an in vitro assay based on SPA technology with Ni Flash plates (96 or 384 well).
In principle, the assay relies upon SPA technology for the detection of auto-poly(ADP-ribosyl)ation of TANK-2 protein using [^3H]-nicotinamide adenine dinucleotide ([^3H]-NAD^+) as ADP-ribosyl donor.
A stock solution of [^3H]-NAD^+/NAD was made by adding 64.6 μl of [^3H]-NAD^+ (0.1 mCi/ml, supplier: Perkin Elmer) and 46.7 μl NAD-stock (10.7 mM, stored at −20° C., supplier Roche) to 1888.7 μl assay buffer (60 mM Tris/HCl, pH 7.4; 0.9 mM DTT; 6 mM MgCl2). The TANK-2 enzyme was produced as described in EP1238063. 60 μl of assay buffer, together with 1 μl of compound in DMSO, 20 μl of [^3H]-NAD^+/NAD and 20 μl of TANK-2 enzyme (final concentration 6 μg/ml) was added per well into a 96-well Ni-coated flash plate (Perkin Elmer). After incubation of the mixture for 120 min. at room temperature, the reaction was terminated by adding 60 μl of stopsolution (42.6 mg NAD in 6 ml H2O). The plates were covered with a plate sealer and placed in a TopCountNXT™ (Packard) for scintillation counting. Values were expressed as counts per minute (cpm). For each experiment, controls (containing TANK-2 enzyme and DMSO without compound), a blank incubation (containing DMSO but no TANK-2 enzyme or compound) and samples (containing TANK-2 enzyme and compound dissolved in DMSO) were run in parallel. All compounds tested were dissolved and eventually further diluted in DMSO. In first instance, compounds were tested at a concentration of 10^−5M. […] In each test, the blank value was subtracted from both the control and the sample values. The control sample represented maximal TANK-2 enzyme activity. For each sample, the amount of cpm was expressed as a percentage of the mean cpm value of the controls. When appropriate, IC50-values (concentration of the drug, needed to reduce the TANK-2 enzyme activity to 50% of the control) were computed using linear interpolation between the experimental points just above and below the 50% level. Herein the effects of test compounds are expressed as pIC50 (the negative log value of the IC50-value). As reference compounds, 3-aminobenzamide and 4-amino-1,8-naphtalimide were included to validate the SPA assay. Herein the assay was described using 96-well plates. In the assay using 384-well plates the same final concentrations were used and volumes were adapted.
(Scintillation proximity formats need no separation of bound from free tracer.)
Consider `O=C1NC(CCN2CCC(n3c(=O)[nH]c4ccccc43)CC2)Nc2ccccc21` (stereo not drawn) [Compound 13], for which the IC50 was 0.938 µM.

The same assay, now with this note: auto-poly(ADP-ribosyl)ation, [3H]-NAD+, 96- or 384-well Ni Flash plates; read-out: in vitro SPA TANK-2 pIC50 (converted).
As for `O=C1NCN(c2ccccc2)C12CCN(CCCc1nc3ccccc3c(=O)[nH]1)CC2` [Compound 2], the IC50 was over 10 µM.
In the case of `O=C(CC1CCN(CCc2nc3ccccc3c(=O)[nH]2)CC1)c1ccc(F)cc1` [Compound 3], the IC50 is 2.48 µM.
For `NC(=O)C1(c2ccccc2)CCN(CCCc2nc3ccccc3c(=O)[nH]2)CC1` [Compound 4], the IC50 was over 10 µM.
Take `NC(=O)C1(c2ccccc2)CCN(CCCC2NC(=O)c3ccccc3N2)CC1` (stereo not drawn) [Compound 5]: the IC50 was over 10 µM.
In the case of `O=C1NC(CCN2CCC3(CC2)C(=O)NCN3c2ccccc2)Nc2ccccc21` (stereo not drawn) [Compound 6], the IC50 is 7.43 µM.
As to `O=C1NC(CCCN2CCC(n3c(=O)[nH]c4ccccc43)CC2)Nc2ccccc21` (stereo not drawn) [Compound 7], the IC50 was under 10 µM.
Same read-out and setting: the same measure for `O=C(NC1CCN(CCCC2NC(=O)c3ccccc3N2)CC1)c1ccccc1` (stereo not drawn) [Compound 8]: over 10 µM; for `O=C(c1ccc(F)cc1)C1CCN(CCc2nc3ccccc3c(=O)[nH]2)CC1` [Compound 9]: over 10 µM; for `NC(=O)C1(N2CCOCC2)CCN(CCCc2nc3ccccc3c(=O)[nH]2)CC1` [Compound 11]: over 10 µM.
With `O=C(NC1CCN(CCCc2nc3ccccc3c(=O)[nH]2)CC1)c1ccccc1` [Compound 12], the IC50 is over 10 µM.
For the compound `O=C(c1ccc(F)cc1)C1CCN(CCCc2nc3ccccc3c(=O)[nH]2)CC1` [Compound 14], the IC50 was over 10 µM.
